{"source": "patent US3963707A", "about": "“Novel N-nitroso compounds, compositions containing such compounds, processes for their preparation and methods of treatment therewith, and novel intermediates” (Aktiebolaget Leo, priority 1973, dated 1976)", "system": "Hepatoma AH 130", "assay": "in vivo", "design": "species or system SPF Wistar rats", "settings": "additional compounds, result in words", "excerpt": "The high activity against tumours is further illustrated in these experiments by comparisons with known antitumour agents used in the therapy. The therapeutic indexes (T.I.), i.e. the ratios LD50/ED50, are in all comparisons much more favourable with the compounds of the present invention.\nLD50 is the dose that caused a 50 percent lethality of the animals, ED50 is the dose that caused a 50 percent reduction of tumour size.\nThe experimental design and the interpretation of the results have been in accordance with the standards set by the CCNSC (Cancer Chemotherapy Reports, January 1959 and December 1962), and by the DR&D (Cancer Chemotherapy Reports, September 1972, Vol. 3, No. 2).\nThe way of administration is by the intraperitoneal route (i.p.) in each case.\nExperimental animals: SPF Wistar rats.\nTumour implant: 5 × 10^6 tumour cells i.p.\nTherapy: One injection i.p. on the day following implantation.\nTermination: The animals are killed on the 8th day.\nEvaluation: Weights of tumours of test animals compared with those of control animals."}
{"smiles": "CN(C(=O)O[C@H]1CC[C@@]2(C)C(=CC[C@H]3[C@@H]4CC[C@H](OP(=O)(O)O)[C@@]4(C)CC[C@@H]32)C1)C(=O)N(CCCl)N=O", "note": "[androstenediol-3β-/N^2-methyl-N^4-(2-chloroethyl)-N^4 nitroso allophanate/-17β-dihydrogen phosphate]", "values": [{"measurement": "anti-tumor activity", "result": "exhibit anti-tumor activity"}]}
{"smiles": "CC1=C2CC[C@H]3[C@@H]4CC[C@H](OC(=O)N(CCCl)N=O)[C@@]4(C)CC[C@@H]3[C@@]2(C)CCC1=O", "note": "[4-methyl-testosterone-17β-N-(2-chloroethyl)-N-nitroso carbamate]", "values": [{"measurement": "anti-tumor activity", "result": "exhibit anti-tumor activity"}]}
{"smiles": "C#C[C@]1(OC(=O)N(CCCl)N=O)CC[C@H]2[C@@H]3CCC4=C[C@@H](OS(=O)(=O)O)CC[C@@H]4[C@H]3CC[C@@]21C", "note": "[ethynodiol-17β-N-(2-chloroethyl)-N-nitroso carbamate-3β-sodium sulphate]", "values": [{"measurement": "anti-tumor activity", "result": "exhibit anti-tumor activity"}]}
{"smiles": "C[C@]12CCC(=O)C=C1CC[C@@H]1[C@@H]2CC[C@@]2(C)[C@H]1CC[C@]2(C)OC(=O)N(CCCl)N=O", "note": "[17α-methyltestosterone-17β-N-(2-chloroethyl)-N-nitroso carbamate]", "values": [{"measurement": "anti-tumor activity", "result": "exhibit anti-tumor activity"}]}
{"smiles": "CC(C)CCC[C@@H](C)[C@H]1CC[C@H]2[C@@H]3CC=C4C[C@@H](OC(=O)N(CCCl)C(=O)N(CCCl)N=O)CC[C@]4(C)[C@H]3CC[C@]12C", "note": "[cholesterol-3β-/N^2,N^4-bis (2-chloroethyl)-N^4-nitroso allophanate/]", "values": [{"measurement": "anti-tumor activity", "result": "exhibit anti-tumor activity"}]}
{"smiles": "CC(=O)O[C@H]1CC[C@H]2[C@@H]3CCc4cc(OC(=O)N(C)C(=O)N(CCCl)N=O)ccc4[C@H]3CC[C@]12C", "note": "[estradiol-17β-acetate-3-/N^2-methyl-N^ 4-(2-chloroethyl)-N^4-nitroso allophanate/]", "values": [{"measurement": "anti-tumor activity", "result": "exhibit anti-tumor activity"}]}
{"smiles": "CC1CCC(N(C(=O)Oc2ccc3c(c2)CC[C@@H]2[C@@H]3CC[C@]3(C)C(=O)CC[C@@H]23)C(=O)N(CCCl)N=O)CC1", "note": "(some centres unmarked) [estrone-3-/N^2-(4-methylcyclohexyl)-N^4-(2-chloroethyl)-N^4-nitroso allophanate/]", "values": [{"measurement": "anti-tumor activity", "result": "exhibit anti-tumor activity"}]}
{"smiles": "Cc1ccc(N(C(=O)O[C@H]2CC[C@@]3(C)C(=CC[C@@H]4[C@@H]3CC[C@]3(C)C(=O)CC[C@@H]43)C2)C(=O)N(CCCl)N=O)cc1C", "note": "[dehydroepiandrosterone-3β-/N^2-(3,4-dimethylphenyl)-N^4-(2-chloroethyl)-N^4-nitroso allophanate/]", "values": [{"measurement": "anti-tumor activity", "result": "exhibit anti-tumor activity"}]}
{"smiles": "C#C[C@]1(OC(=O)N(CCCl)N=O)CC[C@H]2[C@@H]3CCC4=C[C@@H](OP(=O)(O)O)CC[C@@H]4[C@H]3CC[C@@]21C", "note": "[ethynodiol-17β-N-(2-chloroethyl)-N-nitroso carbamate-3β-dihydrogen phosphate]", "values": [{"measurement": "anti-tumor activity", "result": "exhibit anti-tumor activity"}]}
{"smiles": "CC(=O)[C@H]1CC[C@H]2[C@@H]3CC=C4C[C@@H](OC(=O)N(CCCl)C(=O)N(CCCl)N=O)CC[C@]4(C)[C@H]3CC[C@]12C", "note": "[pregnenolone-3β-/N^2,N^4-bis (2-chloroethyl)-N^4-nitroso allophanate/]", "values": [{"measurement": "anti-tumor activity", "result": "exhibit anti-tumor activity"}]}
{"smiles": "C[C@]12CC[C@H]3[C@@H](CC=C4C[C@@H](OC(=O)N(CCCl)N=O)CC[C@@]43C)[C@@H]1CC[C@@H]2OP(=O)(O)O", "note": "[androstenediol-3β-/N-(2-chloroethyl)-N-nitroso carbamate/-17β-dihydrogen phosphate]", "values": [{"measurement": "anti-tumor activity", "result": "exhibit anti-tumor activity"}]}
{"smiles": "C=CC[C@]1(OC(=O)N(CCCl)N=O)CC[C@H]2[C@@H]3CCC4=CCCC[C@@H]4[C@H]3CC[C@@]21C", "note": "[17α-allyl-estr-4-en-17β-ol,17β-N-(2-chloroethyl)-N-nitroso carbamate]", "values": [{"measurement": "anti-tumor activity", "result": "exhibit anti-tumor activity"}]}
{"smiles": "CC(=O)[C@@]1(O)CC[C@H]2[C@@H]3C=C(Cl)C4=C[C@@H](OC(=O)N(CCCl)N=O)CC[C@]4(C)[C@H]3CC[C@@]21C", "note": "[6-chloro-pregna-4,6-diene-3β,17α-diol-20-one,3β-N-(2-chloroethyl)-N-nitroso carbamate]", "values": [{"measurement": "anti-tumor activity", "result": "exhibit anti-tumor activity"}]}
{"smiles": "CC(C)(C)C(=O)OCC(=O)[C@@]1(O)CC[C@H]2[C@@H]3CCC4=CC(=O)C=C[C@]4(C)[C@H]3[C@@H](OC(=O)N(CCCl)N=O)C[C@@]21C", "note": "[prednisolone-11β-/N-(2-chloroethyl)-N-nitroso carbamate/-21-pivalate]", "values": [{"measurement": "anti-tumor activity", "result": "exhibit anti-tumor activity"}]}
{"smiles": "C[C@]12C=CC(=O)C=C1CC[C@@H]1[C@@H]2[C@@H](OC(=O)N(CCCl)N=O)C[C@@]2(C)[C@H]1CC[C@]2(O)C(=O)COP(=O)(O)O", "note": "[prednisolone-11β-/N-(2-chloroethyl)-N-nitroso carbamate/-21-dihydrogenphosphate]", "values": [{"measurement": "anti-tumor activity", "result": "exhibit anti-tumor activity"}]}
{"smiles": "C#C[C@]1(OC(C)=O)CC[C@H]2[C@@H]3CCC4=C[C@@H](OC(=O)N(C)C(=O)N(CCCl)N=O)CC[C@@H]4[C@H]3CC[C@@]21C", "note": "[ethynodiol-17β-acetate-3β-/N^2-methyl-N^4-(2-chloroethyl)-N^4-nitroso allophanate/]", "values": [{"measurement": "anti-tumor activity", "result": "exhibit anti-tumor activity"}]}
{"smiles": "CC(=O)OCC(=O)[C@H]1CC[C@H]2[C@@H]3CCC4=CC(=O)CC[C@]4(C)[C@H]3[C@@H](OC(=O)N(CCCl)N=O)C[C@]12C", "note": "[corticosterone-21-acetate-11β-N-(2-chloroethyl)-N-nitroso carbamate]", "values": [{"measurement": "anti-tumor activity", "result": "exhibit anti-tumor activity"}]}
{"smiles": "CO[C@H]1CC[C@H]2[C@@H]3CC=C4C[C@@H](OC(=O)N(CCCl)N=O)CC[C@]4(C)[C@H]3CC[C@]12C", "note": "[androstenediol-17β-methylether-3β-N-(2-chloroethyl)-N-nitroso carbamate]", "values": [{"measurement": "anti-tumor activity", "result": "exhibit anti-tumor activity"}]}
{"smiles": "C#C[C@]1(OC(C)=O)CC[C@H]2[C@@H]3CCC4=C[C@@H](OC(=O)N(CCF)N=O)CC[C@@H]4[C@H]3CC[C@@]21C", "note": "[ethynodiol-17β-acetate-3β-N-(2-fluoroethyl)-N-nitroso carbamate]", "values": [{"measurement": "anti-tumor activity", "result": "exhibit anti-tumor activity"}]}
{"smiles": "C[C@]12CC[C@@H](OC(=O)N(CCF)N=O)C[C@H]1CC[C@@H]1[C@@H]2CC[C@]2(C)C(=O)CC[C@@H]12", "note": "[etiocholanolone-3α-N-(2-fluoroethyl)-N-nitroso carbamate]", "values": [{"measurement": "anti-tumor activity", "result": "exhibit anti-tumor activity"}]}
{"smiles": "CC1CC2(C)C(CCC3C2CCC2(C)C(OC(=O)N(CCCl)N=O)CCC32)CC1=O", "note": "(stereo not drawn) [2α-methyl-dihydrotestosterone-17β-N-(2-chloroethyl)-N-nitroso carbamate]", "values": [{"measurement": "anti-tumor activity", "result": "exhibit anti-tumor activity"}]}
{"smiles": "C#C[C@]1(OC(=O)N(CCCl)N=O)CC[C@H]2[C@@H]3CCC4=C[C@@H](OP(=O)(O)OCC)CC[C@@H]4[C@H]3CC[C@@]21C", "note": "[ethynodiol-17β-N-(2-chloroethyl)-N-nitroso carbamate-3β-ethyl hydrogen phosphate]", "values": [{"measurement": "anti-tumor activity", "result": "exhibit anti-tumor activity"}]}
{"smiles": "CC(=O)[C@@]1(OC(=O)N(CCCl)N=O)CC[C@H]2[C@@H]3C[C@H](C)C4=CC(=O)CC[C@]4(C)[C@H]3CC[C@@]21C", "note": "[6α-methyl-17α-hydroxy-progesterone,17α-N-(2-chloroethyl)-N-nitroso carbamate]", "values": [{"measurement": "anti-tumor activity", "result": "exhibit anti-tumor activity"}]}
{"smiles": "CC(=O)[C@H]1CC[C@H]2[C@@H]3CC=C4C[C@@H](OC(=O)N(C(=O)N(CCCl)N=O)C5CCCCC5)CC[C@]4(C)[C@H]3CC[C@]12C", "note": "[pregnenolone-3β-/N^2-cyclohexyl-N^4-(2-chloroethyl)-N^4-nitroso allophanate/]", "values": [{"measurement": "anti-tumor activity", "result": "exhibit anti-tumor activity"}]}
{"smiles": "CCCCC(=O)O[C@H]1CC[C@H]2[C@@H]3CCc4cc(OC(=O)N(CCCl)N=O)ccc4[C@H]3CC[C@]12C", "note": "[estradiol-17β-valerate-3-N-(2-chloroethyl)-N-nitroso carbamate]", "values": [{"measurement": "anti-tumor activity", "result": "exhibit anti-tumor activity"}]}
{"smiles": "CC(=O)[C@H]1CC[C@H]2[C@@H]3CC=C4C[C@@H](OC(=O)N(CCF)N=O)CC[C@]4(C)[C@H]3CC[C@]12C", "note": "[pregnenolone-3β-N-(2-fluoroethyl)-N-nitroso carbamate]", "values": [{"measurement": "anti-tumor activity", "result": "exhibit anti-tumor activity"}]}
{"smiles": "C[C@@H]1CC2=CC(=O)CC[C@]2(C)[C@H]2CC[C@@]3(C)[C@@H](CC[C@]3(C)OC(=O)N(CCCl)N=O)[C@H]12", "note": "[7α,17α-dimethyltestosterone-17β-N-(2-chloroethyl)-N-nitroso carbamate]", "values": [{"measurement": "anti-tumor activity", "result": "exhibit anti-tumor activity"}]}
{"smiles": "COc1ccc2c(c1)CC[C@@H]1[C@@H]2CC[C@]2(C)[C@@H](OC(=O)NC(=O)N(CCCl)N=O)CC[C@@H]12", "note": "[estradiol-3-methylether-17β-/N^4-(2-chloroethyl)-N^4-nitroso allophanate/]", "values": [{"measurement": "anti-tumor activity", "result": "exhibit anti-tumor activity"}]}
{"smiles": "C#C[C@]1(OC(=O)N(CCCl)N=O)CC[C@H]2[C@@H]3CCC4=CC(=O)CC[C@@H]4[C@H]3CC[C@@]21CC", "note": "[17α-ethynyl-18-methyl-19-nortestosterone-17β-N-(2-chloroethyl)-N-nitroso carbamate]", "values": [{"measurement": "anti-tumor activity", "result": "exhibit anti-tumor activity"}]}
{"smiles": "CC(=O)[C@H]1CC[C@H]2[C@@H]3CC=C4C[C@@H](OC(=O)N(C(=O)N(CCCl)N=O)C5CCC(C)CC5)CC[C@]4(C)[C@H]3CC[C@]12C", "note": "(stereo partly drawn) [pregnenolone-3β-/N^2-(4-methylcyclohexyl)-N^4-(2-chloroethyl)-N^4-nitroso allophanate/]", "values": [{"measurement": "anti-tumor activity", "result": "exhibit anti-tumor activity"}]}
{"smiles": "C#C[C@]1(OC(=O)N(CCCl)N=O)CC[C@H]2[C@@H]3CCC4=C[C@@H](OC(=O)CCCCCC)CC[C@@H]4[C@H]3CC[C@@]21C", "note": "[ethynodiol-17β-N-(2-chloroethyl)-N-nitroso carbamate-3β-oenanthate]", "values": [{"measurement": "anti-tumor activity", "result": "exhibit anti-tumor activity"}]}
{"smiles": "COc1ccc2c(c1)CC[C@@H]1[C@@H]2CC[C@]2(C)[C@@H](OC(=O)N(C(=O)N(CCCl)N=O)c3ccccc3)CC[C@@H]12", "note": "[estradiol-3-methylether-17β-/N^2-phenyl-N^4-(2-chloroethyl)-N^4-nitroso allophanate/]", "values": [{"measurement": "anti-tumor activity", "result": "exhibit anti-tumor activity"}]}
